US7202243B2, “Substituted imidazotriazines” (Bayer HealthCare AG, priority 2002, dated 2007)

The compounds below were run against T1, PDE 10A (Homo sapiens, UniProt Q9Y233) (assay: Inhibition of PDE 10A (in vitro enzyme inhibition test, [3H]cAMP scintillation proximity assay)). Details: recombinant full-length PDE 10A expressed in Sf9 insect cells; substrate [5',8-3H] cAMP; 60 min at 20° C.
T1 construct: is expressed recombinantly in full length in Sf9 insect cells; made in house; host or cells: Sf9 insect cells, Bac-to-Bac baculovirus expression system
Type: biochemical
Experimental: 48 h after infection, the cells are harvested and suspended in 20 ml (per 1 l of culture) of lysis buffer (50 mM tris HCl, pH 7.4, 50 mM NaCl, 1 mM MgCl2, 1.5 mM EDTA, 10% glycerol plus 20 μl of Protease Inhibitor Cocktail Set III [CalBiochem, La Jolla, Calif. USA]). The cells are treated with ultrasound at 4° C. for 1 minute and subsequently centrifuged at 10 000 rpm for 30 minutes at 4° C. The supernatant (PDE 10A preparation) was collected and stored at −20° C.
The test substances are dissolved in 100% DMSO for the determination of their in vitro action on PDE 10A and serially diluted. […] 2 μl of the diluted substance solutions in each case are introduced into the hollows of microtiter plates (Isoplate; Wallac Inc., Atlanta, Ga.). Subsequently, 50 μl of a dilution of the PDE 10A preparation described above are added. The dilution of the PDE 10A preparation is chosen such that during the later incubation less than 70% of the substrate is reacted (typical dilution: 1:10 000; dilution buffer: 50 mM tris/HCl pH 7.5, 8.3 mM MgCl2, 1.7 mM EDTA, 0.2% BSA). The substrate, [5′,8-^3H] adenosine 3′,5′-cyclic phosphate (1 μCi/μl; Amersham Pharmacia Biotech., Piscataway, N.J.) is diluted 1:2000 with assay buffer (50 mM tris/HCl pH 7.5, 8.3 mM MgCl2, 1.7 mM EDTA) to a concentration of 0.0005 μCi/μl. The enzyme reaction is finally started by addition of 50 μl (0.025 μCi) of the diluted substrate. The test batches are incubated for 60 min at 20° C. and the reaction is stopped by addition of 25 μl of a suspension containing 18 mg/ml of Yttrium Scintillation Proximity Beads (Amersham Pharmacia Biotech., Piscataway, N.J.). The microtiter plates are sealed using a film and allowed to stand for 60 min at 20° C. Subsequently, the plates are measured for 30 s per hollow in a Microbeta scintillation counter (Wallac Inc., Atlanta, Ga.). IC50 values are determined by means of graphic plotting of the substance concentration against the percentage inhibition.

T1 sequence (Q9Y233 1-779 isoform Q9Y233-1): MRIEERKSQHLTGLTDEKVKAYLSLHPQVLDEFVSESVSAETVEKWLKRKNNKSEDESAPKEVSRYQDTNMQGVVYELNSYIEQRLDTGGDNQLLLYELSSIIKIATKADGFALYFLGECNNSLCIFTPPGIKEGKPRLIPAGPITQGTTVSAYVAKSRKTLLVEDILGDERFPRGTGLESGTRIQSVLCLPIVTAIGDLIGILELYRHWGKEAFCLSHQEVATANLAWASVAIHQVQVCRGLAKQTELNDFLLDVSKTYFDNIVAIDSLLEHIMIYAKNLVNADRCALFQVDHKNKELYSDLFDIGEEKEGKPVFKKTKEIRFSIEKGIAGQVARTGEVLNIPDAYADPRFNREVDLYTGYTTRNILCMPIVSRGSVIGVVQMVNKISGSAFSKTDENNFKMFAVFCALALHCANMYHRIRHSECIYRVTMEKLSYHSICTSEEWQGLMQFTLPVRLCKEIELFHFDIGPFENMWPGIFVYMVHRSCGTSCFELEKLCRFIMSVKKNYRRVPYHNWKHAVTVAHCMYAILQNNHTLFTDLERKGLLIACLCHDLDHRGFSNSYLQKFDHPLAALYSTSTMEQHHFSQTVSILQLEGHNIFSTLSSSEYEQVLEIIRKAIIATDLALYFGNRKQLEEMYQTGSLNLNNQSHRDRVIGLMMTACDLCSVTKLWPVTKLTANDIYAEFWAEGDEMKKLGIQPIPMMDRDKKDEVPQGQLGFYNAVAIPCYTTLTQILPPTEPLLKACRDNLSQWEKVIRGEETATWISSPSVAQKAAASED

For `COc1cc(Oc2nc(-c3ccc(NC(C)=O)cc3)nn3c(C)nc(C)c23)cc(OC)c1OC` [Example 2, N-{4-[5,7-Dimethyl-4-(3,4,5-trimethoxyphenoxy)imidazo[5,1-f][1,2,4]triazin-2-yl]-phenyl}acetamide], which IC50 is on record?
Its IC50 is 0.037 µM.

For `COc1cc(Oc2nc(-c3cccc(NC(C)=O)c3)nn3c(C)nc(C)c23)cc(OC)c1OC` [Example 9, N-{3-[5,7-Dimethyl-4-(3,4,5-trimethoxyphenoxy)imidazo[5,1-f][1,2,4]triazin-2-yl]-phenyl}acetamide], which IC50 is on record?
The IC50 was 0.03 µM.

For `COc1cc(Nc2nc(-c3cccc(NS(C)(=O)=O)c3)nn3c(C)nc(C)c23)cc(OC)c1OC` [Example 11, N-(3-{5,7-Dimethyl-4-[(3,4,5-trimethoxyphenyl)amino]imidazo[5,1-f][1,2,4]triazin-2-yl}phenyl)methanesulfonamide], which IC50 is on record?
Its IC50 is 0.043 µM.

Which IC50 does the source give for `COc1cc(Nc2nc(-c3ccc(NC=O)cc3)nn3c(C)nc(C)c23)cc(OC)c1OC` [Example 12, 4-{5,7-Dimethyl-4-[(3,4,5-trimethoxyphenyl)amino]imidazo[5,1-f][1,2,4]triazin-2-yl}phenylformamide] here?
The IC50 was 0.008 µM.

`COc1cc(Nc2nc(-c3ccc(NC(=O)CO)cc3)nn3c(C)nc(C)c23)cc(OC)c1OC` [Example 15, N-(4-{5,7-Dimethyl-4-[(3,4,5-trimethoxyphenyl)amino]imidazo[5,1-f][1,2,4]triazin-2-yl}phenyl)-2-hydroxyacetamide] was tested. Which IC50 did it give?
The IC50 was 0.006 µM.
